For 1 compound, glass transition temperature results are on record in patent US20060094744A1, “Pharmaceutical dosage forms of stable amorphous rapamycin like compounds” (priority 2004, published 2006).

The nature of the data set: Differential scanning calorimetry of amorphous sirolimus (glass transition temperature). Type of data set: physicochemical. To be noted: DSC, TA-Instruments Q1000 MTDSC, approximately 3 mg, heating rate 2° C./min; higher Tg is said to mean a more stable amorphous material. As for the experimental part: In another test, the amorphous sirolimus is analyzed utilizing differential scanning calorimetry. Essentially, the purpose of this test is to determine the glass transition temperature of the amorphous sirolimus. In this test, approximately 3 mg of amorphous sirolimus is transferred into a standard aluminum TA-Instrument sample pan and covered. The DSC curve is recorded on a TA-Instruments Q1000 MTDSC equipped with a RCS cooling unit. FIG. 2 illustrates a differential scanning calorimetry curve of amorphous sirolimus.
(In general: Differential scanning calorimetry records heat flow against a reference as temperature is scanned.)

Turning to `CO[C@H]1C[C@@H]2CC[C@@H](C)[C@@](O)(O2)C(=O)C(=O)N2CCCC[C@H]2C(=O)O[C@H]([C@H](C)C[C@@H]2CC[C@@H](O)[C@H](OC)C2)CC(=O)[C@H](C)/C=C(\C)[C@@H](O)[C@@H](OC)C(=O)[C@H](C)C[C@H](C)/C=C/C=C/C=C/1C` [amorphous sirolimus, (3S,6R,7E,9R,10R,12R,14S,15E,17E,19E,21 S,23S, 26R,27R,34aS)-9, 10, 12, 13, 14,21,22,23,24,25,26,27,32,33,34, 34a-hexadecahydro-9,27-dihydroxy-3-[(1R)-2-[(1S,3R,4R)-4-hydroxy-3-methoxycyclohexyl]-1-methylethyl]-10,21-dimethoxy-6,8,12,14,20,26-hexamethyl-23,27-epoxy-3H-pyrido[2,1-c][1,4] oxaazacyclohentriacontine-1,5,11,28,29(4H,6H,31H)-pentone], the glass transition temperature result was “about 93 °C”.
